Assay results taken from patent US5177082A, “Huperzines and analogs” (priority 1990, dated 1993).
Values joined by “and” are separate entries in the source; they are usually repeats but may differ in a detail not shown here. Equal values may be shown once. “Also recorded” adds a separate entry of the source.

Assays:
myasthenia gravis = assay: Clinical curative effects in 128 cases with myasthenia gravis; type: in vivo, human
Description: 128 patients with correctly diagnosed myasthenia gravis were used in the trial.
(§1) Patients affected with myasthenia gravis (MG) with typical clinical symptoms which improved after using neostigmine were the subjects for testing and verification. […] It was generally used for at least ten days and each dosage was 0.4-0.5 mg. […] The injections were all given in the morning and on the morning prior to the injections anticholinesterase drugs were discontinued. Neither the patients nor the doctors knew which drug was being injected. Later, the symptoms, the duration of the improvements, if any, which were obtained by the drugs and the side effects were recorded. Based on these factors, the relative merits of the two drugs were established.
(+) (++) and (+++) was used as the standard for the seriousness of the symptoms, (+++) was the most serious.
1. Prolapse of eyelids: the tear width of the eye after use of the drug was measured. If there was an increase of 0.2 cm above that before use of the drug, then the effect was "+", if the increase was 0.4 cm then the effect was "++" and if the increase was 0.6 cm then the effect was "+++".
2. Impairment to eyeball activity: when the eyeball was basically fixed and immovable then it was "+++", those who had reoccuring major complaints and basically normal activities were "+" and those in an intermediate state were "++".
3. Difficulties in swallowing: when swallowing was still possible but there was a feeling of difficulty or there was slowing of the speed of the intake of food then the patient was treated as "+"; when the patient could swallow but it was very slow then the patient was "++"; when the patient was basically unable to swallow the rating was "+++".
4. Systemic myasthenia: patients who were able to walk but felt very exhausted were "+"; patients who were able to stand up and walk with difficulty a short distance in the ward or corridor were "++"; and patients who could not get out of bed were "+++".

dogs = assay: Subacute toxicity in dogs; type: in vivo, dog
Description: Rabbits and dogs: there were 20 rabbits divided into four groups. […] The control group was given im injections of distilled water. […] When the time arrived, the rabbits and dogs were dissected. The routine blood tests glutamic-pyruvic transaminase, zinc turbidity, urea nitrogen and creatinine were all normal. […] The stimulation of the latter was even more outstanding.

Mice = settings: mouse, in vivo
[1] = tested on: Sciatic Nerve/Tibialis Muscle Preparation; assay: Anesthetized rabbit sciatic nerve/tibialis muscle preparation; type: in vivo; settings: rabbits
Description: Anesthesized Rat and Rabbit Sciatic Nerve/Tibialis Muscle Preparation
Anesthesia was produced in rats by ip injections of 30 mg/kg of pentobarbital and in rabbits by iv injections of 1 g/kg of urethane. Electric stimulation of the periphery of the sciatic nerve (5-10 V, 0.5 ms, 1 c/10 s) caused tibialis contraction which was recorded on smoked paper.

patients = assay: Clinical side effects in patients with myasthenia gravis; type: in vivo, human
Description: as §1

memory functions of rats = assay: Memory function of preconditioned rats after 48 hours; type: in vivo, rat
Description: To evaluate the impact on the memory function, preconditioned animals going through 5 shock-free runs were used as learned animals. After 48 hours the drug-free (control) animals required 14.4±8.9 shocks to become learned.

Rats = settings: rat, in vivo

## C/C=C1\[C@H]2C=C(C)C[C@]1(N)c1ccc(=O)[nH]c1C2 [Huperzine A, (5R, 9R, 11E)-5-amino-11-ethylidene-5,6,9,10-tetrahydro-7-methyl-5,9-methanocycloocta[b]pyridin-2(1H)-one]
Myasthenia gravis; 127 cases
  initial effect within 15-30 minutes, %: 85.03%
  initial effect within 15-30 minutes, No. of Cases: 108 cases
  optimal curative effect within 45-60 minutes, %: 51.18%
  optimal curative effect within 45-60 minutes, No. of Cases: 65 cases
  time of maximal effect, longest: 240 min
  time of maximal effect, shortest: 18 min
Myasthenia gravis; X ± SD, 127 cases
  initial effect time, average: 21.92 ± 19.56 min and 21.92 min
  time of maximal effect, average: 50.34 ± 25.65 min and 50.34 min
Myasthenia gravis; cases exceeding 6 hours
  average action time among the 40 cases: 10.42 ± 5.80 h
  longest action time among the 40 cases: 24 h
  shortest action time among the 40 cases: 6 h
Myasthenia gravis; eye muscle type
  sustaining time of effect, shortest: 0.66 h
Myasthenia gravis; human, in vivo
  action time exceeded 6 hours, %: 31.64%
  action time exceeded 6 hours, cases: 40 cases
  action time reached 4-6 hours, %: 34.64%
  action time reached 4-6 hours, cases: 44 cases
  average action time: 5.94 ± 4.92 h
  cases with marked effects: 71 cases
  cases with marked effects, %: 55.46%
Myasthenia gravis; im injection
  initial effect time, longest: 222 min
  physical symptom initial improvement time, longest: 3.7 h
  physical symptom initial improvement time, shortest: 10 min
Myasthenia gravis; im injection, 0.4 mg
  effect on myasthenia gravis condition: effective anticholinesterase drug for treating myasthenia gravis; also recorded: able to definitely improve the myasthenia gravis condition
Myasthenia gravis; not marked
  cases rated effective: 56 cases
  cases rated effective, %: 43.75%
Myasthenia gravis; of 128
  cases for which drug was effective: 127 cases
  cases for which drug was effective, %: 99.21%
Myasthenia gravis; systemic and eye muscle type
  sustaining time of effect, longest: 24 h
dogs; dogs
  microscopic examination, heart: light fat infiltration
  routine blood tests, glutamic-pyruvic transaminase, zinc turbidity, urea nitrogen and creatinine: all normal
dogs; dogs, 0.6 mg/kg im, 180 days
  symptoms: noticeable whole body muscle fiber twitching
dogs; dogs, im 180 days
  ECG: no drug induced abnormalities
dogs; dogs, six months, 90 times (MG) / 750 times (senile dementia) clinical dosage
  pathological changes of internal organs: no noticeable pathological changes of internal organs were observed
dogs; dogs, small dosages (0.3 mg/kg im), 180 days
  abnormalities: No abnormalities were observed
dogs; each dosage group of dogs
  microscopic examination, cerebral cortex: cerebral spongiocyte growth and myophagia
Mice
  Toxic Strength: 1.00
  symptoms after single toxic dose: typical symptoms of cholinesterase inhibitor poisoning, such as whole body muscle fiber twitching, drooling, tears, increase bronchial secretions and incontinence of feces and urine
[1]; Oryctolagus cuniculus, iv, read-out: Lowest Effective Dosage for Enhancing Muscle Contraction
  minimal effective dose: 0.03 mg/kg
[1]; galanthamine = 1.0
  Strength of Effect: 16.6
[1]; iv (Huperzine A 30 μg/kg)
  effect on electrically stimulated muscle contraction: enhancement of the amplitude of the electrically stimulated muscle contraction
[1]; physostigmine = 1.0
  Strength of Effect: 4
patients; X^2 =15, P<0.001
  nausea vs neostigmine: more apt to cause nausea than was neostigmine
patients; control group
  Abdominal pains, %: 5.9%
  Abdominal pains, number of times: 21
  Blurred vision, %: 3.2%
  Blurred vision, number of times: 11
  Changes in the rhythm of the heart, %: 3.1%
  Changes in the rhythm of the heart, number of times: 11
  Disturbed sleep, %: 0.8%
  Disturbed sleep, number of times: 3
  Dizziness, %: 20.3%
  Dizziness, number of times: 72
  Drooling, %: 3.5%
  Drooling, number of times: 9
  Increase in the number of bowel movements, %: 2.8%
  Increase in the number of bowel movements, number of times: 10
  Muscle bundle quivering, %: 10.4%
  Muscle bundle quivering, number of times: 37
  Myosis, %: 3.0%
  Myosis, number of times: 13
  Nausea, %: 12.9%
  Nausea, number of times: 46
  Perspiring, %: 7.0%
  Perspiring, number of times: 25
  Tinnitus, %: 3.7%
  Tinnitus, number of times: 13
  Vomiting, %: 2.8%
  Vomiting, number of times: 10
patients; control patients, 69 cases
  cases with side effects: 45 cases
patients; control patients, 69 cases, X^2 =3.58, P>0.05
  cases with side effects, %: 65.21%
patients; muscle bundle quivering, dizziness, perspiring, blurred vision
  side effects other than nausea vs neostigmine: lower side effects for each of the other items than neostigmine; also recorded: statistically lower than neostigmine; also recorded: lower side effects in all other areas than neostigmine
patients; noncontrol group, 128 cases
  Abdominal pains, %: 6.5%
  Abdominal pains, number of times: 80
  Blurred vision, %: 1.8%
  Blurred vision, number of times: 22
  Changes in the rhythm of the heart, %: 1.0%
  Changes in the rhythm of the heart, number of times: 13
  Disturbed sleep, %: 0.4%
  Disturbed sleep, number of times: 5
  Dizziness, %: 8.1%
  Dizziness, number of times: 100
  Drooling, %: 2.0%
  Drooling, number of times: 25
  Increase in the number of bowel movements, %: 0.5%
  Increase in the number of bowel movements, number of times: 11
  Muscle bundle quivering, %: 4.0%
  Myosis, %: 1.0%
  Myosis, number of times: 13
  Nausea, %: 7.8%
  Nausea, number of times: 95
  Perspiring, %: 4.8%
  Perspiring, number of times: 59
  Tinnitus, %: 3.1%
  Tinnitus, number of times: 38
  Vomiting, %: 1.2%
  Vomiting, number of times: 15
Memory functions of rats; 0.03 mg/kg, ip, after 48 hours
  shocks required to achieve the learned state (memory): 6.8±7.2 shocks
Memory functions of rats; normal male rats, 1/138 of the LD50 dosage
  memory functions (Y-maze and brightness discrimination test): can strengthen the memory functions
Rats
  Toxic Strength: 1.00
